Read-outs that look alike come from different tables or passages of the source.
How the values were obtained:
Test in all cases: SelectScreen Kinase Profiling, single point inhibition and IC50 for off-target kinases
Format in all cases: biochemical
off-target kinases [1] = target: off-target kinases (Homo sapiens, UniProt Q99558); settings: MAP3K14 (NIK), LanthaScreen Binding
off-target kinases [2] = target: T1, off-target kinases (Homo sapiens, UniProt P54753); settings: EPHB3, ZLYTE, ATP Km app
T1 sequence (P54753 34-998): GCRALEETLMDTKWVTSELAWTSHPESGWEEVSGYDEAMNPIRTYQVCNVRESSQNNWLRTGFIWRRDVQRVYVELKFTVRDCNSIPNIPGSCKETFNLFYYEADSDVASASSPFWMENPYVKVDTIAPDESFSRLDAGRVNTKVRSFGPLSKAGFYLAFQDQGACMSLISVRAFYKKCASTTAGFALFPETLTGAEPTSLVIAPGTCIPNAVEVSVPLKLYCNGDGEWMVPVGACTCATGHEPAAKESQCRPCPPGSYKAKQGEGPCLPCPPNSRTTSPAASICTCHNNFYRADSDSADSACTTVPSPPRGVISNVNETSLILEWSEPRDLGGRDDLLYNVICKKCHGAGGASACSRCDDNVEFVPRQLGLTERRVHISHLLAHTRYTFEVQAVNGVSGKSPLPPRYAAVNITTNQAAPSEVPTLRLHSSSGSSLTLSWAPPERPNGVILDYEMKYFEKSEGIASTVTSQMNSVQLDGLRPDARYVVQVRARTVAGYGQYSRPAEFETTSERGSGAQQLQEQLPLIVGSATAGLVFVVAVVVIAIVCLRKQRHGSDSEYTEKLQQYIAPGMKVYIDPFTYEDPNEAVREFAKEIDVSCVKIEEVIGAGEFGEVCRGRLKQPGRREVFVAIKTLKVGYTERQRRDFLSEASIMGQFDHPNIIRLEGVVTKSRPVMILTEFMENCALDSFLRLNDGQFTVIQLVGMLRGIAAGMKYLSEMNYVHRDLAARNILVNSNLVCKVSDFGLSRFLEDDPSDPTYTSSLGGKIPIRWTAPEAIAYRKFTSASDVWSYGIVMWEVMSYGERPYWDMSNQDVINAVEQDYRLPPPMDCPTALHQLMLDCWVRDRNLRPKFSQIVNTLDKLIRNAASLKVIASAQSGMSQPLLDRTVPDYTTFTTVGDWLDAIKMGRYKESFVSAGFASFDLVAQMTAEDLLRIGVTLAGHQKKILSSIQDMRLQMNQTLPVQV

off-target kinases [3] = target: off-target kinases (Homo sapiens, UniProt P10721, D816H); settings: KIT D816H, LanthaScreen Binding
off-target kinases (Homo sapiens, UniProt P10721, D816H), sequence (P10721 26-976 D816H): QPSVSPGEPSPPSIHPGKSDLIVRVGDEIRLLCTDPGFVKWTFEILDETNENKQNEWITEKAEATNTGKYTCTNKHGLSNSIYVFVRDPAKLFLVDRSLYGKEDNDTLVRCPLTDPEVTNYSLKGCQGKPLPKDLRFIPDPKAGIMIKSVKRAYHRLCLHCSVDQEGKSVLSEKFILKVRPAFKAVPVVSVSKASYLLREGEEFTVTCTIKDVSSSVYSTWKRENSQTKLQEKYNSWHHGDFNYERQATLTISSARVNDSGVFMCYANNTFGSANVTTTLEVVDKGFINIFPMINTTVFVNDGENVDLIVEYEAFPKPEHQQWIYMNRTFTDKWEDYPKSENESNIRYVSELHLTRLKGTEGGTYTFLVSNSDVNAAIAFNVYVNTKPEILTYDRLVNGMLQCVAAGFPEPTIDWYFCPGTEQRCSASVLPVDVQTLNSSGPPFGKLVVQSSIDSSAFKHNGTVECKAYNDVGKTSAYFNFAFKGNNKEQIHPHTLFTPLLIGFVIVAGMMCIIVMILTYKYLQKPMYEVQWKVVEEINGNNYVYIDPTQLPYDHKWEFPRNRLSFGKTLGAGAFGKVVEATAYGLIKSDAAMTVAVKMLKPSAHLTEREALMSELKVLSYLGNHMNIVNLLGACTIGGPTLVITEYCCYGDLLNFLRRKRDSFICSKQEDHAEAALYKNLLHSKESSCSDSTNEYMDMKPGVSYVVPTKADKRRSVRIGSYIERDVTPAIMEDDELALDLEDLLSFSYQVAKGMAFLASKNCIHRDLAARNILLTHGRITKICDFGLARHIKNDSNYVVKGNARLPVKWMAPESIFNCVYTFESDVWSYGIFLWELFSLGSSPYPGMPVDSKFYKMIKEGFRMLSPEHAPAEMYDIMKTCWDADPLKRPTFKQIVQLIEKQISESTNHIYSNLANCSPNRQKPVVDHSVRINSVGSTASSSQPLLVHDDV

off-target kinases [4] = target: T2, off-target kinases (Homo sapiens, UniProt P51955); settings: NEK2, ZLYTE, ATP Km app
T2 sequence (P51955 1-445): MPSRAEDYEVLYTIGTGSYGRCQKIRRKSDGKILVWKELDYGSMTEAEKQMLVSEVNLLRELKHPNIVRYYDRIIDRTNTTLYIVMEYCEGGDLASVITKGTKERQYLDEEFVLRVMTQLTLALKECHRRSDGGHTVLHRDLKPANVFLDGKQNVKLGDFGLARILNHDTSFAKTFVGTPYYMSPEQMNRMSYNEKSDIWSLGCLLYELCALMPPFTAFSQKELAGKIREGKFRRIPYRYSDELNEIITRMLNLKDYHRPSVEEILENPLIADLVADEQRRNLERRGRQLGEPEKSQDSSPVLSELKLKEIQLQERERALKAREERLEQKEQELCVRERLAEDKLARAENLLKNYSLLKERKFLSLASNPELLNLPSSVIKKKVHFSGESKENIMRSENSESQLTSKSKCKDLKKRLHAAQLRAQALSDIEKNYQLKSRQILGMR

off-target kinases [5] = target: off-target kinases (Homo sapiens, UniProt Q9UPE1); settings: STK23 (MSSK1), ZLYTE, ATP Km app
off-target kinases (Homo sapiens, UniProt Q9UPE1), sequence (Q9UPE1 whole entry): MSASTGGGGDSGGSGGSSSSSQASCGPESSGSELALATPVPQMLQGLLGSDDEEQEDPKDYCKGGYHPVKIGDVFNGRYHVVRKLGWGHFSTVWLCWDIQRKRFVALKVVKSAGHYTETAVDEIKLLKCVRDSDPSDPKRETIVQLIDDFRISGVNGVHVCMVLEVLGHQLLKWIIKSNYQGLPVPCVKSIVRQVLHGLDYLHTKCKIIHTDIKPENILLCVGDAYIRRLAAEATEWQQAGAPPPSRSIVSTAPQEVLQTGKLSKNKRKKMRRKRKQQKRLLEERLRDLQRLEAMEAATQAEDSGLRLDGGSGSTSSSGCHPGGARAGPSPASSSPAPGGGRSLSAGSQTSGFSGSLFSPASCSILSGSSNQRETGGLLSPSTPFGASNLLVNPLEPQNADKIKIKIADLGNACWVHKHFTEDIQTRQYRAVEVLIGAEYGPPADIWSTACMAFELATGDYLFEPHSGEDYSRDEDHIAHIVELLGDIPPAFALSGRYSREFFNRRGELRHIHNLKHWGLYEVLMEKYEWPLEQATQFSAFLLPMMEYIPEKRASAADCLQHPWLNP

off-target kinases (Homo sapiens, UniProt Q99558), sequence (Q99558 whole entry): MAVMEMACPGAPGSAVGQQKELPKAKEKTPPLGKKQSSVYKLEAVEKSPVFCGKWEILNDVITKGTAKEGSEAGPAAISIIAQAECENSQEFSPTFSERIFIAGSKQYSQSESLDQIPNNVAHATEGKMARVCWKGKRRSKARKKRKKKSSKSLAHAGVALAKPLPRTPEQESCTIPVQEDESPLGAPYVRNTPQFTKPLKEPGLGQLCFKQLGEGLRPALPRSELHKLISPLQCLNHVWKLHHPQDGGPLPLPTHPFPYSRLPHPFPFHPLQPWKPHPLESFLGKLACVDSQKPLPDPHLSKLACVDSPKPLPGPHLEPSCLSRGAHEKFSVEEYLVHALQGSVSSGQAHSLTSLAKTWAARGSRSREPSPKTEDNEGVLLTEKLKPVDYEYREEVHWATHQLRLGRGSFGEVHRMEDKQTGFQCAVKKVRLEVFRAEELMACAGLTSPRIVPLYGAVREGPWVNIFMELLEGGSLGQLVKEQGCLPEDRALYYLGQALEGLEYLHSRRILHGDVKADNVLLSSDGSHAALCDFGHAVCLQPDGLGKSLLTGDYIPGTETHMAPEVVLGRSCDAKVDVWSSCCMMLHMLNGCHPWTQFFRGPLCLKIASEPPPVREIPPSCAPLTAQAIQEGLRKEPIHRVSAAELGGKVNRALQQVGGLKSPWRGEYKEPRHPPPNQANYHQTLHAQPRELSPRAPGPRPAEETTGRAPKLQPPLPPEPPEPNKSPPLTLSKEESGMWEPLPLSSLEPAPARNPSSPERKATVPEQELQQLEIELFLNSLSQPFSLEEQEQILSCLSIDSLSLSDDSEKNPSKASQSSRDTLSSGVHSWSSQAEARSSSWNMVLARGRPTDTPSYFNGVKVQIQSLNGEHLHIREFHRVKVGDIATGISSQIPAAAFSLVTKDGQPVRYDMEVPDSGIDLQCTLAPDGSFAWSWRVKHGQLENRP

In the case of N#Cc1cc(-c2ncnc(Nc3ccc(N4CCN(C5COC5)CC4)cc3)n2)ccc1OC1CCOCC1 [Compound 1, 5-(4-((4-(4-(oxetan-3-yl)piperazin-1-yl)phenyl)amino)-1,3,5-triazin-2-yl)-2-((tetrahydro-2H-pyran-4-yl)oxy)benzonitrile], the inhibition (off-target kinases [1]; read-out: % Inhibition 1) is reported as 20%, the inhibition (off-target kinases [1]; read-out: % Inhibition 2) is reported as 24% and the inhibition (off-target kinases [1]; read-out: % Inhibition Avg) is reported as 22%. The inhibition (off-target kinases [2]; read-out: % Inhibition 1) was 3%, the inhibition (off-target kinases [2]; read-out: % Inhibition 2) was 3% and the inhibition (off-target kinases [2]; read-out: % Inhibition Avg) was 3%. For the same compound, the inhibition (off-target kinases [3]; read-out: % Inhibition 1) was 90%, the inhibition (off-target kinases [3]; read-out: % Inhibition 2) was 94% and the inhibition (off-target kinases [3]; read-out: % Inhibition Avg) was 92%. For the same compound, the inhibition (off-target kinases [4]; read-out: % Inhibition 1) was 29%, the inhibition (off-target kinases [4]; read-out: % Inhibition 2) was 30% and the inhibition (off-target kinases [4]; read-out: % Inhibition Avg) was 30%. For the same compound, the inhibition (off-target kinases [5]; read-out: % Inhibition 1) was 2%, the inhibition (off-target kinases [5]; read-out: % Inhibition 2) was 1% and the inhibition (off-target kinases [5]; read-out: % Inhibition Avg) was 2%.

— patent US11572590B2, “Methods for evaluating tumor cell spheroids using 3D microfluidic cell culture device” (Dana-Farber Cancer Institute, Inc., priority 2017, dated 2023)
